Here are results for nine compounds from ChEMBL document CHEMBL1201862, “PubChem BioAssay data set” (2004).

Some test systems named below: K562; HOP-92; HOP-62; SK-MEL-28; NCI-H23; CCRF-CEM; COLO 205; SF-268; MCF7; 786-0; MDA-MB-435; UACC-62; OVCAR-5; A498; SF-295; NCI/ADR-RES; MDA-MB-231; SF-539; SR; CAKI-1.
What all share (test): inhibition of tumour cell growth, NCI panel, 48 h

SMILES strings stand for the structures.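 96-well plates; 48 h exposure; 5 concentrations. Endpoints by linear interpolation between flanking doses. Not reached: highest tested concentration assigned. The concentration for 50% growth inhibition is given as GI50.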 The source made the active and inactive calls. No stated cut-off is given here; in the data, active = GI50 up to about 1.1 µM and inactive = higher.

Turning to `Cc1cc(C)c2c(c1)C1=NCCN1C2(O)c1ccc(Cl)cc1` (stereo not given), the GI50 was 19.1 µM (inactive) with K562; 7.35 µM (inactive) in the experiment on HOP-92; 15.2 µM (inactive) in the experiment with HOP-62; 16.8 µM (inactive) with SK-MEL-28; 17.8 µM (inactive) in the experiment on NCI-H23; 17.2 µM (inactive) in the experiment with CCRF-CEM. In addition, the GI50 in the experiment on COLO 205 was 15.1 µM (inactive); in the experiment with SF-268, 15.8 µM (inactive); in the experiment with MCF7, 18 µM (inactive); in the experiment with 786-0, 16.1 µM (inactive); in the experiment on MDA-MB-435, 16.7 µM (inactive); in the experiment with UACC-62 it was 15.9 µM (inactive). The GI50 in the experiment on OVCAR-5 is 16.5 µM (inactive); in the experiment on A498, 15.2 µM (inactive); with SF-295 it was 15.7 µM (inactive); with NCI/ADR-RES it was 14.4 µM (inactive); in the experiment on MDA-MB-231, 14.6 µM (inactive); with SF-539, 15.3 µM (inactive). For the same compound, the results for the GI50 with SR and in the experiment with CAKI-1 were 20.1 µM (inactive) and 15.1 µM (inactive), respectively.
As to `N#Cc1ccnc(C(=O)N2CCCC2C(=O)O)c1` (stereo not given), the GI50 was > 82.8 µM (inactive) in the experiment with K562; > 100 µM (inactive) in the experiment on HOP-92; > 100 µM (inactive) in the experiment with HOP-62; > 100 µM (inactive) with SK-MEL-28; > 100 µM (inactive) in the experiment with NCI-H23; > 100 µM (inactive) in the experiment with CCRF-CEM. For the same compound, the GI50 with COLO 205, with SF-268, in the experiment with MCF7, in the experiment with 786-0, with MDA-MB-435 and in the experiment on UACC-62 was > 100 µM (inactive) each time. The GI50 with OVCAR-5, in the experiment on A498, in the experiment on SF-295, in the experiment with NCI/ADR-RES, with MDA-MB-231 and in the experiment on SF-539 was > 100 µM (inactive) throughout. The GI50 in the experiment on SR and in the experiment on CAKI-1 was > 100 µM (inactive) in each case.
With `CNC(=S)NN=C1NCCCCN1`, the GI50 in the experiment on K562, in the experiment with HOP-92, with HOP-62, with SK-MEL-28, with NCI-H23 and in the experiment on CCRF-CEM was > 100 µM (inactive) each time. For the same compound, the GI50 in the experiment on COLO 205, with SF-268, in the experiment on MCF7, in the experiment with 786-0, in the experiment on MDA-MB-435 and in the experiment with UACC-62 was > 100 µM (inactive) in each case. Further, the GI50 in the experiment with OVCAR-5, with A498, in the experiment with SF-295, in the experiment on NCI/ADR-RES, with MDA-MB-231 and in the experiment on SF-539 was > 100 µM (inactive) throughout. Further, the GI50 in the experiment on SR was > 100 µM (inactive); in the experiment on CAKI-1 it was 29.2 µM (inactive).
Consider `COc1cc(C2c3cc4c(cc3OC(NCCc3ccccc3)C2C)OCO4)cc(OC)c1OC` (stereo not given), for which the GI50 was 0.269 µM (active) in the experiment on K562; 4.67 µM (inactive) with HOP-92; 0.614 µM (active) in the experiment on HOP-62; 18.3 µM (inactive) with SK-MEL-28; 0.413 µM (active) in the experiment with NCI-H23; 0.343 µM (active) with CCRF-CEM. The GI50 in the experiment with COLO 205 was 0.242 µM (active); with SF-268, 0.736 µM (active); with MCF7, 0.383 µM (active); in the experiment on 786-0, 0.465 µM (active); in the experiment on MDA-MB-435 it was 0.111 µM (active); in the experiment with UACC-62 it was 0.388 µM (active). In addition, the GI50 with OVCAR-5 was 1.75 µM (inactive); with A498 it was 0.574 µM (active); in the experiment on SF-295 it was 0.2 µM (active); in the experiment with NCI/ADR-RES it was 0.31 µM (active); in the experiment on MDA-MB-231, 0.249 µM (active); in the experiment with SF-539 it was 0.286 µM (active). Besides, the values for the GI50 in the experiment with SR and in the experiment on CAKI-1 were 0.174 µM (active) and 0.291 µM (active), respectively.
With `CC1(C)CC(=O)c2c(nc3ccc4ccccc4c3c2-c2ccc(NC(=O)CCCCC(=O)Nc3ccc(-c4c5c(nc6ccc7ccccc7c46)CC(C)(C)CC5=O)cc3)cc2)C1`, the GI50 with K562, in the experiment with HOP-92, with HOP-62, with SK-MEL-28, in the experiment on NCI-H23 and in the experiment with CCRF-CEM was > 100 µM (inactive) each time. Besides, the GI50 in the experiment with COLO 205, in the experiment on SF-268, in the experiment with MCF7, with 786-0, in the experiment on MDA-MB-435 and in the experiment on UACC-62 was > 100 µM (inactive) in each case. The GI50 in the experiment on OVCAR-5, with A498, with SF-295, with NCI/ADR-RES, with MDA-MB-231 and in the experiment with SF-539 was > 100 µM (inactive) throughout. Also, the GI50 in the experiment on SR and in the experiment on CAKI-1 was > 100 µM (inactive) throughout.
For the compound `COC(=O)NC1C(C)OC(OC2C/C=C(/C)C3C=CC4C(OC5CC(OC6CCC(OC7CC(O)C(OC8CCC(O)C(C)O8)C(C)O7)C(C)O6)C(OC(C)=O)C(C)O5)C(C)CC(C)C4C3(C)/C(O)=C3/C(=O)OC4(CC(C=O)=CC(O)C4/C=C\2C)C3=O)CC1(C)[N+](=O)[O-]` (stereo not given), the GI50 was 0.885 µM (active) in the experiment with K562; 1.06 µM (active) in the experiment with HOP-92; 0.767 µM (active) with HOP-62; 0.403 µM (active) in the experiment with SK-MEL-28; 0.774 µM (active) in the experiment on NCI-H23; 0.178 µM (active) in the experiment on CCRF-CEM. Besides, the GI50 is 1.1 µM (active) in the experiment on COLO 205; 0.719 µM (active) with SF-268; 0.94 µM (active) with MCF7; 0.861 µM (active) in the experiment on 786-0; 0.382 µM (active) in the experiment with MDA-MB-435; 0.552 µM (active) with UACC-62. Further, the GI50 in the experiment with OVCAR-5 was 1.93 µM (inactive); with A498 it was 0.668 µM (active); with SF-295, 0.993 µM (active); in the experiment on NCI/ADR-RES, 6.17 µM (inactive); in the experiment on MDA-MB-231 it was 0.755 µM (active); in the experiment with SF-539 it was 0.34 µM (active). Besides, the GI50 was 0.857 µM (active) in the experiment with SR and 2.49 µM (inactive) with CAKI-1.
With `OC1C2[C@@H](O)CCCN2C[C@@H](O)[C@H]1O` (stereo not given in full), the GI50 in the experiment with K562, with HOP-92, with HOP-62, with SK-MEL-28, in the experiment on NCI-H23 and in the experiment on CCRF-CEM was > 100 µM (inactive) in each case. Further, the GI50 in the experiment on COLO 205, in the experiment with SF-268, with MCF7, in the experiment with 786-0, in the experiment on MDA-MB-435 and with UACC-62 was > 100 µM (inactive) throughout. Also, the GI50 in the experiment with OVCAR-5, in the experiment on A498, with SF-295, with NCI/ADR-RES, in the experiment on MDA-MB-231 and in the experiment on SF-539 was > 100 µM (inactive) throughout. The GI50 in the experiment with SR and in the experiment with CAKI-1 was > 100 µM (inactive) each time.
`CC1=C2O[C@]3(O)C=C2C(=C(O)C1=O)[C@@H]1O[C@H](CC[C@H](C)/C=C(\C)C[C@@H](C)C[C@@H]3C)[C@H](C)[C@H](O)[C@H]1C` [KENDOMYCIN]: the GI50 is 0.166 µM (active) in the experiment with K562; 0.13 µM (active) in the experiment on HOP-92; 0.356 µM (active) in the experiment on HOP-62; 0.229 µM (active) in the experiment on SK-MEL-28; 0.316 µM (active) in the experiment on NCI-H23; 0.0473 µM (active) with CCRF-CEM. Moreover, the GI50 in the experiment on COLO 205 was 0.125 µM (active); with SF-268 it was 0.354 µM (active); in the experiment on MCF7 it was 0.179 µM (active); in the experiment on 786-0, 0.149 µM (active); with MDA-MB-435, 0.145 µM (active); with UACC-62 it was 0.233 µM (active). The GI50 was 1.31 µM (inactive) in the experiment with OVCAR-5; 1.58 µM (inactive) with A498; 1.22 µM (inactive) in the experiment with SF-295; 0.311 µM (active) in the experiment with NCI/ADR-RES; 0.151 µM (active) with MDA-MB-231; 0.173 µM (active) with SF-539. Besides, the GI50 was 0.135 µM (active) with SR and 0.541 µM (active) with CAKI-1.
Turning to `CN1CCC2(c3ccccc3)CC(=O)/C(=C/c3ccc(Cl)c(Cl)c3)C1C2.[O-][Cl+3]([O-])([O-])O` (stereo not given), the GI50 in the experiment on K562 was 2.52 µM (inactive); in the experiment on HOP-92 it was 2.31 µM (inactive); in the experiment with HOP-62, 3.37 µM (inactive); in the experiment with SK-MEL-28, 2.1 µM (inactive); in the experiment on NCI-H23 it was 2.86 µM (inactive); with CCRF-CEM, 2.02 µM (inactive). Further, the GI50 was 1.95 µM (inactive) in the experiment on COLO 205; 1.86 µM (inactive) with SF-268; 3.4 µM (inactive) in the experiment with MCF7; 2.37 µM (inactive) in the experiment with 786-0; 2.11 µM (inactive) with MDA-MB-435; 1.51 µM (inactive) in the experiment on UACC-62. Besides, the GI50 with OVCAR-5 is 2.35 µM (inactive); in the experiment with A498, 5.2 µM (inactive); with SF-295, 2.43 µM (inactive); in the experiment on NCI/ADR-RES, 2.78 µM (inactive); with MDA-MB-231 it was 1.69 µM (inactive); in the experiment on SF-539 it was 1.98 µM (inactive). Moreover, the GI50 in the experiment with SR was 0.968 µM (active); with CAKI-1 it was 3.94 µM (inactive).
